pEC50: −log10 of the molar value.

In test [1] the target is T1, STAT6 (Homo sapiens, UniProt P42226).
T1 construct: These cells express endogenous STAT6; host or cells: HeLa LgBiT clone 4.14 (CRISPR knock-in of HiBiT into the endogenous STAT6 gene)
T1 sequence (P42226 1-847): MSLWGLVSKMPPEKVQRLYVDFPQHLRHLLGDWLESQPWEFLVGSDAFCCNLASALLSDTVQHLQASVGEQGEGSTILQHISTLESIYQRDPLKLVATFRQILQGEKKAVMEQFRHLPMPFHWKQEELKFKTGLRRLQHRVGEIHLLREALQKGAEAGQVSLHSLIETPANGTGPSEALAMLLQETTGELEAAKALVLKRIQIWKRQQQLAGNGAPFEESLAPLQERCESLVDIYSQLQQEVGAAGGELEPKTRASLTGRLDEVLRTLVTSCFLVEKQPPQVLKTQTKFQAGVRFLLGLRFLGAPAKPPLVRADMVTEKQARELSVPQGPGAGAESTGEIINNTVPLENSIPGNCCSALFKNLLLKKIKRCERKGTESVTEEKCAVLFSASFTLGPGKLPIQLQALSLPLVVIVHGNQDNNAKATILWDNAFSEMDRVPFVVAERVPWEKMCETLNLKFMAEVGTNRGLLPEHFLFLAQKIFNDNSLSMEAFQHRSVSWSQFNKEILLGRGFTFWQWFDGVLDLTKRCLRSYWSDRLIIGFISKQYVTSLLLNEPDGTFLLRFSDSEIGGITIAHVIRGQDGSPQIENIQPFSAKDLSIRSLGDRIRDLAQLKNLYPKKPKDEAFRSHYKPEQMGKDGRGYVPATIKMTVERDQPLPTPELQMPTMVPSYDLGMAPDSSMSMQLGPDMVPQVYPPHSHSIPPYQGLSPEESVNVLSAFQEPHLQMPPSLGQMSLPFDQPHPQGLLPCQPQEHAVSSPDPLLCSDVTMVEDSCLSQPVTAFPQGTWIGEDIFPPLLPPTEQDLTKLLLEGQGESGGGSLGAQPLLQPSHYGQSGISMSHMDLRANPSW
Nature of the test: STAT6 Degrader Assay (HiBiT based, HeLa LgBiT clone 4.14 cells). It is filed as cell-based. The note with it: geometric mean across assay runs and compound batches; DC50 provided for test compounds with >80% Emax; read-out: STAT6 degradation DC50. The method in brief:
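DC50 (nM) comes from NanoBiT luminescence of HiBiT-knock-in STAT6 in HeLa LgBiT clone 4.14 cells, treated 4-24 h at 37° C. Luminescence reflects non-degraded STAT6, with 50 μM terfenadine wells taken as full degradation.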

The subject of test [2] is Eotaxin-3 (CCL26) release. The test is described as follows: Human Whole Blood Eotaxin-3 Assay (IL-4 stimulated). Type of test: cell-based. The following applies: Homo sapiens; geometric mean across assay runs and compound batches; EC50 provided for test compounds with >80% Emax. The method in brief: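 Lithium-heparin human whole blood preincubated 2 h at 37 °C with compounds (4-fold dilutions, triplicate, 0.5% DMSO final). Then stimulated with 400 pM final recombinant human IL-4 for 48 h. Eotaxin-3 in supernatant quantified by MSD immunoassay.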

As to `CNc1cc(=O)n(-c2ccnc3c2cc([C@H](C)N2CC=C(c4c(C)cc(C(=O)N5CCn6nc(CN7CCC(c8ccc(NC9CCC(=O)NC9=O)cc8F)CC7)cc6C5)cc4F)CC2)n3C)cc1F` (stereo partly drawn) [Example 2g4, 3-((3-fluoro-4-(1-((5-(3-fluoro-4-(1-((S)-1-(4-(5-fluoro-4-(methylamino)-2-oxopyridin-1(2H)-yl)-1-meth-yl-1H-pyrrolo[2,3-b]pyridin-2-yl)ethyl)-1,2,3,6-tetrahydro-pyridin-4-yl)-5-methylbenzo-yl)-4,5,6,7-tetrahydropyrazolo [1,5-a]pyrazin-2-yl)methyl)-piperidin-4-yl)phenyl)amino)-piperidine-2,6-dione], in test [1], the DC50 amounted to 0.5 nM. Further, in test [2], the pEC50 was 8.72.
Taken in the same sequence, the figures for `C[C@@H](c1cc2c(-n3ccc4c(c3=O)CCN4)ccnc2n1C)N1CCC(c2ccc(C(=O)N3CCC(CN4CCN(c5ccc(N[C@H]6CCC(=O)NC6=O)cc5F)CC4)CC3)cc2)CC1` (single isomer, unassigned) [Example 2c36] were 5.7 nM and 7.66.
On to `CNc1cc(=O)n(-c2ccnc3c2cc([C@H](C)N2CC=C(c4c(C)cc(C(=O)N5CCn6nc(CC7(O)CCN(c8ccc(NC9CCC(=O)NC9=O)c(OC)c8)CC7)cc6C5)cc4F)CC2)n3C)cc1F` (stereo partly drawn) [Example 2g7, 3-((4-(4-((5-(3-fluoro-4-(1-((S)-1-(4-(5-fluoro-4-(meth-ylamino)-2-oxopyridin-1(2H)-yl)-1-methyl-1H-pyrrolo[2,3-b]pyridin-2-yl)ethyl)-1,2,3,6-tetrahydropyridin-4-yl)-5-methylbenzoyl)-4,5,6,7-tetra-hydropyrazolo[1,5-a]pyrazin-2-yl)methyl)-4-hydroxy-piperidin-1-yl)-2-methoxy-phenyl)amino)-piperidine-2,6-dione], for which, in test [1], the DC50 worked out at 10.3 nM. The same molecule had a pEC50 in test [2] of 7.81.
The like results for `CNc1ccn(-c2ccnc3c2cc([C@H](C)N2CC=C(c4c(C)cc(C(=O)N5CCC(CN6CCN(c7ncc(N[C@H]8CCC(=O)NC8=O)cc7F)C[C@H]6C)CC5)cc4F)CC2)n3C)c(=O)c1` (single isomer, unassigned) [Example 2g114] were, in that order, 5.8 nM and 8.19.
As for `CNc1ccn(-c2ccnc3c2cc([C@H](C)N2CC=C(c4c(F)cc(C(=O)N5CCC(CN6CCN(c7ccc(NC8CCC(=O)NC8=O)cc7F)CC6)CC5)cc4F)CC2)n3C)c(=O)c1` (stereo partly drawn) [Example 2g104, 3-((4-(4-((1-(3,5-difluoro-4-(1-((S)-1-(1-methyl-4-(4-(methylamino)-2-oxopyridin-1(2H)-yl)-1H-pyrrolo[2,3-b]pyridin-2-yl)ethyl)-1,2,3,6-tetrahydropyridin-4-yl)benzo-yl)piperidin-4-yl)methyl)-piperazin-1-yl)-3-fluorophen-yl)amino)piperidine-2,6-dione], the DC50 in test [1] turned out to be 3.8 nM. The molecule further gave a pEC50 in test [2] of 8.05.
As for `CNc1cc(=O)n(-c2ccnc3c2cc([C@H](C)N2CC=C(c4c(C)cc(C(=O)N5CCn6nc(CN7CCC(c8ccc(N[C@@H]9CCC(=O)NC9=O)c(OC)c8)CC7)cc6C5)cc4F)CC2)n3C)cc1F` (single isomer, unassigned) [Example 2g12], in test [1], the DC50 stood at 0.7 nM. The same molecule showed a pEC50 in test [2] of 9.30.
Turning to `CNc1cc(=O)n(-c2ccnc3c2cc(CN2CCC(c4c(F)cc(C(=O)N5CCC(CN6CCN(c7ccc(N[C@@H]8CCC(=O)NC8=O)cc7F)CC6)CC5)cc4F)CC2)n3C)cc1F` (single isomer, unassigned) [Example 2g33], the DC50 in test [1] is 50.8 nM. The same molecule had a pEC50 in test [2] of 7.19.
As for `CNc1ccn(-c2ccnc3c2cc([C@H](C)N2CCC(c4c(C)cc(C(=O)N5CCC(CN6CCN(c7ccc(NC8CCC(=O)NC8=O)cc7F)CC6)CC5)cc4F)CC2)n3C)c(=O)c1` (stereo partly drawn) [Example 2g43, 3-((3-fluoro-4-(4-((1-(3-fluoro-5-methyl-4-(1-((S)-1-(1-methyl-4-(2-(methyl-amino)-2-oxopyridin-1(2H)-yl)-1H-pyrrolo[2,3-b]pyridin-2-yl)ethyl)piperidin-4-yl)-benzoyl)piperidin-4-yl)meth-yl)piperazin-1-yl)phenyl)-amino)piperidine-2,6-dione], the DC50 in test [1] amounted to 15.7 nM. Also, the pEC50 in test [2] is 7.19.
The like results for `C[C@@H](c1cc2c(-n3ccc4c(c3=O)CCN4)ccnc2n1C)N1CCC(c2ccc(C(=O)N3CCC(CN4CCN(c5ccc(N[C@@H]6CCC(=O)NC6=O)cc5F)CC4)CC3)cc2)CC1` (single isomer, unassigned) [Example 2c35] were, in that order, 7.5 nM and 7.73.
The like results for `CNc1cc(=O)n(-c2ccnc3c2cc([C@H](C)N2CC=C(c4c(F)cc(C(=O)N5CCC(CN6CCN(c7ccc(N[C@@H]8CCC(=O)NC8=O)cc7F)CC6)CC5)cc4F)CC2)n3C)cc1F` (single isomer, unassigned) [Example 2g121] were, in that order, 9.6 nM and 7.51.
Taken in the same sequence, the figures for `CNc1ccn(-c2ccnc3c2cc([C@H](C)N2CC=C(c4c(C)cc(C(=O)N5CCn6nc(CN7CCC(c8cc(OC)c(NC9CCC(=O)NC9=O)cc8F)CC7)cc6C5)cc4F)CC2)n3C)c(=O)c1` (stereo partly drawn) [Example 2g128, 3-((5-fluoro-4-(1-((5-(3-fluoro-5-methyl-4-(1-((S)-1-(1-methyl-4-(4-(methyl-amino)-2-oxopyridin-1(2H)-yl)-1H-pyrrolo[2,3-b]pyridin-2-yl)ethyl)-1,2,3,6-tetrahydro-pyridin-4-yl)benzoyl)-4,5,6,7-tetrahydropyrazolo[1,5-a]pyr-azin-2-yl)methyl)piperidin-4-yl)-2-methoxyphenyl)amino)-piperidine-2,6-dione] were 0.1 nM and 9.70.
Turning to `CNc1cc(=O)n(-c2ccnc3c2cc([C@H](C)N2CC=C(c4c(F)cc(C(=O)N5CCC(CN6CCN(c7ccc(NC8CCC(=O)NC8=O)cc7F)CC6)CC5)cc4F)CC2)n3C)cc1F` (stereo partly drawn) [Example 2g119, 3-((4-(4-((1-(3,5-difluoro-4-(1-((S)-1-(4-(5-fluoro-4-(methylamino)-2-oxopyridin-1(2H)-yl)-1-methyl-1H-pyr-rolo[2,3-b]pyridin-2-yl)ethyl)-1,2,3,6-tetrahydropyridin-4-yl)benzoyl)piperidin-4-yl)-methyl)piperazin-1-yl)-3-fluorophenyl)amino)piperi-dine-2,6-dione], in test [1], the DC50 is 14 nM. In addition, in test [2], the pEC50 was 7.32.
The like results for `CNc1cc(=O)n(-c2ccnc3c2cc(CN2CC=C(c4c(F)cc(C(=O)N5CCC(CN6CCN(c7ccc(NC8CCC(=O)NC8=O)cc7F)CC6)CC5)cc4F)CC2)n3C)cc1F` (stereo not shown) [Example 2g65, 3-((4-(4-((1-(3,5-difluoro-4-(1-((4-(5-fluoro-4-(methyl-amino)-2-oxopyridin-1(2H)-yl)-1-methyl-1H-pyrrolo[2,3-b]pyridin-2-yl)methyl)-1,2,3,6-tetrahydropyridin-4-yl)benzoyl)piperidin-4-yl)-methyl)piperazin-1-yl)-3-fluorophenyl)amino)piperi-dine-2,6-dione] were, in that order, 120 nM and 6.39.
Consider `CNc1ccn(-c2ccnc3c2cc([C@H](C)N2CC=C(c4c(C)cc(C(=O)N5CCC(CN6CCN(c7ccc(N[C@@H]8CCC(=O)NC8=O)c(OC)c7)CC6)CC5)cc4F)CC2)n3C)c(=O)c1` (single isomer, unassigned) [Example 2g127], for which, in test [1], the DC50 worked out at 20.8 nM. In test [2], this molecule gave a pEC50 of 8.03.

For orientation: DC50 means the midpoint of the concentration-degradation curve. Broadly, the pEC50 is the EC50 on a negative log10 scale, so that one unit is a factor of ten. A lower pEC50 goes with a large EC50.

(Values after patent publication US20250320205A1, “STAT6 DEGRADERS” (Gilead Sciences, Inc., priority 2024, published 2025).)
